Assays:
Type in all cases: in vivo
[1] = tested on: Common Cutworm (Spodoptera litura); assay: Insecticidal Test on Common Cutworm (Spodoptera litura); conditions: Comparative Example 1; same conditions as Test Example 1
Method: Insecticidal Test on Common Cutworm (Spodoptera litura)
(§1) A piece of cabbage leaf was immersed for 30 seconds in a liquid chemical prepared by diluting a test compound to a prescribed concentration. After air-drying, the piece was put into a 7-cm polyethylene cup and second-instar larvae of common cutworms were released thereinto. The polyethylene cups were set in an isothermal chamber thermostated at 25° C. From the release 6 days later, the dead and alive were counted. The test was carried out with two replications of 5 insects per a plot.

[2] = tested on: Onion Thrip (Thrips tabaci); conditions: Comparative Example 1; same conditions as Test Example 5
Method: Insecticidal Test on Onion Thrip (Thrips tabaci)
A chemical to the prescribed concentration was dispersed on onion seedlings, air-dried, and then both the seedlings and 5 adult insects of onion thrips were put into a glass test tube (diameter; 3 cm, height: 10 cm). The resulting material was lidded. 3 days thereafter, the number of surviving insects was counted and the mortality was calculated.

[3] = tested on: Western Flower Thrip (Franklinella occidentalis); assay: Insecticidal Test on Western Flower Thrip (Franklinella occidentalis); conditions: Comparative Example 1; same conditions as Test Example 3
[4] = tested on: Melon Thrip (Thrips palmi); assay: Insecticidal Test on Melon Thrip (Thrips palmi); conditions: Comparative Example 1; same conditions as Test Example 4
Text: Insecticidal Test on Melon Thrip (Thrips palmi)
Into a plastic cup (diameter: 5 cm, height: 5 cm) was poured 1% agar gel, and the reverse side of a cucumber leaf cut with a diameter of 4.5 cm was placed upward to prepare leaf disc. A chemical to the prescribed concentration was dispersed thereon using a vertical sprayer. After air-drying, 5 adult melon thrips were released thereinto and the resulting material was lidded. 3 days thereafter, the number of surviving insects was counted and the mortality was calculated.

[5] = tested on: Diamondback Moth (Plutella xylostella); assay: Insecticidal Test on Diamondback Moth (Plutella xylostella); conditions: Comparative Example 1; same conditions as Test Example 2
Method: Insecticidal Test on Diamondback Moth (Plutella xylostella)
as §1, with “of diamondback moths” for “of common cutworms”, “the release,” for “the release”

Measured: insecticidal activity

Cc1cc(C(F)(C(F)(F)F)C(F)(F)F)ccc1NC(=O)c1cccc(NC(=O)c2ccccc2I)c1 [Compound A, N-(4-heptafluoroisopropyl-2-methyl)phenyl 3-(2-iodobenzoylamino)benzamide]
could not be confirmed: all assays above

Cc1cc(C(F)(F)F)cc(C)c1NC(=O)c1cccc(NC(=O)c2ccccc2)c1 [Compound B, N-(2,6-dimethyl-4-trifluoromethyl)phenyl 3-(benzoylamino)benzamide]
could not be confirmed: all assays above

Source: patent US20090099204A1, “Amide derivative, insecticide containing the same and method for application thereof as insecticide” (Mitsui Chemicals, Inc., priority 2005, published 2009)
